Experimental data from US20160257697A1, “THIOPHENE-SUBSTITUTED TETRACYCLIC COMPOUNDS AND METHODS OFUSE THEREOF FOR THE TREATMENT OF VIRAL DISEASES” (priority 2013, published 2016).
Read-outs that look alike come from different tables or passages of the source.

Experiments:
Test in all cases: microbe, parasite or virus in culture
Assay type in all cases: cell-based, Hepatitis C virus (HCV)
Details in all cases: Replicon Assay A
[1] = system: HCV replicon 1AY93H
Procedure, shortened: (§1)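 HCV replicon RNA levels were quantified by TaqMan RT-PCR after 3-day compound exposure (0.5% DMSO, 5% FBS). Cyclophilin RNA, co-amplified in the same reaction, served as endogenous control; Ct values were converted to RNA amounts using linear regression standard curves.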

[2] = system: HCV replicon 1A
Procedure, shortened: as §1

[3] = system: HCV replicon 2B
Procedure, shortened: as §1

[4] = read-out: 1A Y93H IC50, replicon 1AY93H
[5] = read-out: 1A Y93H IC50, HCV replicon 1A Y93H
[6] = Hepatitis C virus, HCV replicon 1A
[7] = read-out: 2B IC50, HCV replicon 2B
[8] = Hepatitis C virus, read-out: 1A Y93H IC50, HCV replicon 1A Y93H
[9] = Hepatitis C virus, read-out: 2B IC50, HCV replicon 2B

Row | SMILES | IC50 [1, 4] [nM] | IC50 ([2]; replicon 1A) [nM] | IC50 ([3]; read-out: 2B IC50, replicon 2B) [nM] | also measured
1 | CCc1ccc(C2Oc3cc(-c4cnc([C@@H]5CCCN5C(=O)[C@@H](NC(=O)OC)C(C)C)[nH]4)cc(F)c3-c3cc4cc(-c5cnc([C@@H]6C[C@H]7C[C@H]7N6C(=O)C(NC(=O)OC)C6CCOC(C)(C)C6)[nH]5)ccc4n32)s1 (single isomer, unassigned) [Compound 199] | 26.5 | 0.118 | 33.3 | 
2 | COCc1ccc(C2Oc3cc(-c4cnc([C@@H]5CCCN5C(=O)[C@@H](NC(=O)OC)C(C)C)[nH]4)cc(F)c3-c3cc4cc(-c5c[nH]c([C@@H]6CCCN6C(=O)[C@@H](NC(=O)OC)C(C)C)n5)ccc4n32)s1 (single isomer, unassigned) [Compound 511] |  |  |  | IC50 [1, 5]: 0.401 nM; IC50 [2, 6]: 0.00238 nM; IC50 [3, 7]: 1.83 nM
3 | COC(=O)NC(C(=O)N1CCC[C@H]1c1ncc(-c2cc(F)c3c(c2)OC(c2ccc(C4CC4)s2)n2c-3cc3cc(-c4cnc([C@@H]5CCCN5C(=O)C(NC(=O)OC)C(C)(C)F)[nH]4)ccc32)[nH]1)C(C)(C)F (single isomer, unassigned) [Compound 110] | 1.97 |  | 2.43 | IC50 ([2]; Hepatitis C virus, replicon 1A): 0.002 nM
4 | COC(=O)NC(C(=O)N1[C@@H]2C[C@@H]2C[C@H]1c1ncc(-c2ccc3c(c2)cc2n3C(c3ccc(C4CC4)s3)Oc3cc(-c4cnc([C@@H]5CCCN5C(=O)[C@@H](NC(=O)OC)C(C)C)[nH]4)cc(F)c3-2)[nH]1)C1CCOC(C)(C)C1 (single isomer, unassigned) [Compound 278] | 0.161 | 0.0018 | 0.3 | 
5 | COC(=O)N[C@H](C(=O)N1CCC[C@H]1c1ncc(-c2cc(F)c3c(c2)OC(c2sc(C4CC4)cc2C)n2c-3cc3cc(-c4cnc([C@@H]5CCCN5C(=O)[C@@H](NC(=O)OC)C(C)C)[nH]4)ccc32)[nH]1)C(C)C (single isomer, unassigned) [Compound 328] | 2.8 |  | 1.73 | IC50 ([2]; Hepatitis C virus, replicon 1A): 0.001 nM
6 | CCc1ccc(C2Oc3cc(-c4cnc([C@@H]5CCCN5C(=O)C(NC(=O)OC)C5CCOC(C)(C)C5)[nH]4)cc(F)c3-c3cc4cc(-c5cnc([C@@H]6CCCN6C(=O)C(NC(=O)OC)C6CCOC(C)(C)C6)[nH]5)ccc4n32)s1 (single isomer, unassigned) [Compound 297] | 8.37 | 0.0889 | 6.68 | 
7 | COC(=O)NC(C(=O)N1CCC[C@H]1c1ncc(-c2ccc3c(c2)cc2n3C(c3ccc(C(C)C)s3)Oc3cc(-c4cnc([C@@H]5CCCN5C(=O)[C@@H](NC(=O)OC)C(C)C)[nH]4)cc(F)c3-2)[nH]1)C1CCOC(C)(C)C1 (single isomer, unassigned) [Compound 242] | 0.75 | 0.0011 | 4.42 | 
8 | [2H]C(C)(C)C(NC(=O)OC)C(=O)N1CCC[C@H]1c1ncc(-c2cc(F)c3c(c2)OC(c2ccc(C4CC4)s2)n2c-3cc3cc(-c4cnc([C@@H]5CCCN5C(=O)[C@@H](NC(=O)OC)C(C)C)[nH]4)ccc32)[nH]1 (single isomer, unassigned) [Compound 31] | 0.02 | 0.002 | 0.083 | 
9 | COC(=O)NC(C(=O)N1CCC[C@H]1c1ncc(-c2ccc3c(c2)cc2n3C(c3ccc(C4CC4)s3)Oc3cc(-c4cnc([C@@H]5CCCN5C(=O)[C@@H](NC(=O)OC)C(C)C)[nH]4)cc(F)c3-2)[nH]1)C(C)(C)F (single isomer, unassigned) [Compound 76] | 2.55 | 0.0159 | 13.7 | 
10 | COC(=O)NC(C(=O)N1CCC[C@H]1c1ncc(-c2ccc3c(c2)cc2n3C(c3ccc(C4CC4)s3)Oc3cc(-c4cnc([C@@H]5CCCN5C(=O)[C@@H](NC(=O)OC)C(C)C)[nH]4)cc(F)c3-2)[nH]1)C1CCOC(C)(C)C1 (single isomer, unassigned) [Compound 222] | 0.24 | 0.002 | 0.17 | 
11 | COC(=O)N[C@H](C(=O)N1CCC[C@H]1c1ncc(-c2cc(F)c3c(c2)OC(c2ccc(CCF)s2)n2c-3cc3cc(-c4cnc([C@@H]5CCCN5C(=O)[C@@H](NC(=O)OC)C(C)C)[nH]4)ccc32)[nH]1)C(C)C (single isomer, unassigned) [Compound 43] | 0.12 |  | 0.54 | IC50 ([2]; Hepatitis C virus, replicon 1A): 0.0019 nM
12 | COC(=O)N[C@H](C(=O)N1CCC[C@H]1c1ncc(-c2cc(F)c3c(c2)OC(c2cc4c(s2)CCCO4)n2c-3cc3cc(-c4cnc([C@@H]5CCCN5C(=O)[C@@H](NC(=O)OC)C5CCOC(C)(C)C5)[nH]4)ccc32)[nH]1)C(C)C (single isomer, unassigned) [Compound 411] |  |  |  | IC50 [1, 5]: 0.78 nM; IC50 ([2]; HCV replicon 1A): 0.001 nM; IC50 [3, 7]: 0.2 nM
13 | COC(=O)NC(C(=O)N1CCC[C@H]1c1ncc(-c2ccc3c(c2)cc2n3C(c3ccc(C4CC4)s3)Oc3cc(-c4cnc([C@@H]5CCCN5C(=O)[C@@H](NC(=O)OC)C(C)C)[nH]4)cc(F)c3-2)[nH]1)C1CCOC(C)(C)C1 (single isomer, unassigned) [Compound 223] | 0.24 | 0.0025 | 0.27 | 
14 | COC(=O)N[C@H](C(=O)N1CCC[C@H]1c1ncc(-c2ccc3c(c2)cc2n3C(c3ccc(Cl)s3)Oc3cc(-c4cnc([C@@H]5CCCN5C(=O)[C@H](NC(=O)OC)C(C)C)[nH]4)cc(F)c3-2)[nH]1)C(C)C (mixture of isomers) [Compound 506] |  |  |  | IC50 [1, 8]: 0.397 nM; IC50 [2, 6]: 0.0171 nM; IC50 [3, 9]: 0.471 nM
15 | COC(=O)N[C@H](C(=O)N1CCC[C@H]1c1ncc(-c2cc(F)c3c(c2)OC(c2ccc(C(C)C)s2)n2c-3cc3cc(-c4cnc([C@@H]5CCCN5C(=O)[C@@H](NC(=O)OC)C5CCOCC5)[nH]4)ccc32)[nH]1)C(C)C (single isomer, unassigned) [Compound 344] | 0.128 |  | 0.242 | IC50 ([2]; Hepatitis C virus, replicon 1A): 0.0015 nM
16 | COC(=O)N[C@H](C(=O)N1C[C@H](F)C[C@H]1c1ncc(-c2ccc3c(c2)OC(c2cc4ccccc4s2)n2c-3cc3cc(-c4cnc([C@@H]5C[C@@H](F)CN5C(=O)[C@@H](NC(=O)OC)C5CCOCC5)[nH]4)ccc32)[nH]1)C(C)C (mixture of isomers) [Compound 807] |  |  |  | IC50 [1, 8]: 0.025 nM; IC50 [2, 6]: 0.003 nM; IC50 [3, 9]: 2 nM
17 | COC(=O)NC(C(=O)N1[C@@H]2C[C@@H]2C[C@H]1c1ncc(-c2ccc3c(c2)c(F)c2n3C(c3ccc(C4CC4)s3)Oc3cc(-c4cnc([C@@H]5CCCN5C(=O)[C@@H](NC(=O)OC)C(C)C)[nH]4)cc(F)c3-2)[nH]1)C1CCOC(C)(C)C1 (single isomer, unassigned) [Compound 422] |  |  |  | IC50 [1, 5]: 0.107 nM; IC50 [2, 6]: 0.0023 nM; IC50 [3, 7]: 0.138 nM
18 | COC(=O)NC(C(=O)N1CCC[C@H]1c1ncc(-c2ccc3c(c2)cc2n3C(c3ccc(C4CC4)s3)Oc3cc(-c4cnc([C@@H]5CCCN5C(=O)[C@@H](NC(=O)OC)C(C)C)[nH]4)cc(F)c3-2)[nH]1)C1CCO[C@H](C)C1 (single isomer, unassigned) [Compound 137] | 0.28 | 0.0018 | 0.37 | 
19 | CCc1ccc(C2Oc3cc(-c4cnc([C@@H]5CCCN5C(=O)[C@@H](NC(=O)OC)C(C)C)[nH]4)cc(F)c3-c3cc4cc(-c5cnc([C@@H]6CCCN6C(=O)C(NC(=O)OC)C6CCOC(C)(C)C6)[nH]5)ccc4n32)s1 (single isomer, unassigned) [Compound 149] | 25.9 | 0.129 | 24.8 | 
20 | COC(=O)N[C@H](C(=O)N1C[C@H](F)C[C@H]1c1nc(-c2ccc3c(c2)OC(c2ccc(C)s2)n2c-3cc3cc(-c4c[nH]c([C@@H]5C[C@H]6C[C@H]6N5C(=O)[C@@H](NC(=O)OC)C5CCOCC5)n4)ccc32)c[nH]1)C1CCOCC1 (single isomer, unassigned) [Compound 729] |  |  |  | IC50 [1, 5]: 0.22 nM; IC50 ([2]; HCV replicon 1A): 0.028 nM; IC50 [3, 7]: 0.034 nM
21 | COC(=O)N[C@H](C(=O)N1CCC[C@H]1c1ncc(-c2ccc3c(c2)OC(c2cc(C)c(C)s2)n2c-3cc3cc(-c4cnc([C@@H]5C[C@H]6C[C@H]6N5C(=O)[C@@H](NC(=O)OC)C(C)C)[nH]4)ccc32)[nH]1)C(C)C (single isomer, unassigned) [Compound 503] |  |  |  | IC50 [1, 5]: 1.76 nM; IC50 ([2]; HCV replicon 1A): 0.0676 nM; IC50 [3, 7]: 7.51 nM
22 | CCc1ccc(C2Oc3cc(-c4cnc([C@@H]5CCCN5C(=O)[C@@H](NC(=O)OC)C(C)C)[nH]4)cc(F)c3-c3cc4cc(-c5cnc([C@@H]6C[C@@H](F)CN6C(=O)C(NC(=O)OC)C6CCOC(C)(C)C6)[nH]5)ccc4n32)s1 (single isomer, unassigned) [Compound 260] | 0.047 | 0.001 | 11.7 | 
23 | COC(=O)N[C@H](C(=O)N1CCC[C@H]1c1ncc(-c2cc(F)c3c(c2)OC(c2cccs2)n2c-3cc3cc(-c4cnc([C@@H]5CCCN5C(=O)[C@@H](NC(=O)OC)C(C)C)[nH]4)ccc32)[nH]1)C(C)C (mixture of isomers) [Compound 500] |  |  |  | IC50 [1, 8]: 0.367 nM; IC50 [2, 6]: 0.0219 nM; IC50 [3, 9]: 2.5 nM
24 | COC(=O)NC(C(=O)N1CCC[C@H]1c1ncc(-c2cc(F)c3c(c2)OC(c2ccc(C4CC4)s2)n2c-3cc3cc(-c4cnc([C@@H]5CCCN5C(=O)[C@@H](NC(=O)OC)C(C)C)[nH]4)ccc32)[nH]1)C1CCOC(C)(C)C1 (single isomer, unassigned) [Compound 211] | 0.22 | 0.0026 | 0.42 | 
25 | COC(=O)NC(C(=O)N1CCC[C@H]1c1ncc(-c2ccc3c(c2)cc2n3C(c3ccc(C4CC4)s3)Oc3cc(-c4cnc([C@@H]5CCCN5C(=O)[C@@H](NC(=O)OC)C(C)C)[nH]4)cc(F)c3-2)[nH]1)C1C[C@@H](C)O[C@H](C)C1 (single isomer, unassigned) [Compound 191] | 0.32 | 0.0014 | 0.89 | 
